Results published in patent US20260374781A1, “NOVEL TRIHETEROCYCLIC COMPOUNDS” (IDENCE CO., LTD., priority 2022, published 2026).
pIC50: −log10 of the molar value.

The compounds below were run on AsPC-1 cells (assay: Cell Proliferation Assay, AsPC-1 (CellTiter-Glo 2.0 viability)). Conditions: AsPC-1 pancreatic cancer (KRAS G12D mutation); 72 hours.
Format: cell-based
Procedure: Test Example 3: Cell Proliferation Assay
Cell viability testing of test compounds in AsPC-1 pancreatic cancer (KRAS G12D mutation) or SW480 colon cancer (KRAS G12V mutation) cells for 72 hours
The reference compound Staurosporine was purchased from Sigma-Aldrich (Saint Louis, MI), and CellTiter-Glo® 2.0 Luminescent cell viability assay reagent (cat #G9243) was purchased from Promega (Madison, WI). AsPC-1 and SW480 cell lines were purchased from American Type Culture Collection (Manassas, VA). AsPC-1 cells were cultured with RPMI-1640 (ATCC, cat #30-2001) and SW480 cells were cultured with DMEM (ATCC cat #30-2002).
A medium supplemented with 10% FBS (Sigma-Aldrich, cat #F2442) and 100 µg/mL of penicillin-streptomycin (Sigma-Aldrich, cat #P4333) was used. Cells were cultured at 37 °C in a humidified atmosphere of 5% CO2 and 95% air.
• 1. The test compound and reference compound, Staurosporine were dissolved in DMSO solution to prepare 20 mM (test compound) and 10 mM (control compound, Staurosporine) in the Source Plate and diluted with DMSO to 3-fold and 10 doses. • 2. From the Source Plate, 10 volumes of 125 nL test compound or 25 nL reference compound were dispensed into wells of a 384-well culture plate (VWR, cat #82050-076) using Echo 655. • 3. 25 μL of culture medium including 2000 AsPC-1 or SW480 cells was dispensed into each 384-well cell culture plate. • 4. Cells were cultured with the compound for 72 hours at 37 °C and 5% CO2 conditions. • 5. 25 μL of CellTiter-Glo 2.0 reagent was added to each well of the plate. • 6. The contents were mixed for 2 minutes on an orbital shaker, and the luminescence signal was stabilized at room temperature for 15 minutes. • 7. Luminescence signals were measured with an Envision 2104 Multilabel Reader (PerkinElmer, Santa Clara, CA), and the number of surviving cells was determined through quantification of ATP present in each culture. • 8. IC50 values were calculated based on the Sigmoidal dose-response equation in the GraphPad Prism 4 program.

In the case of `C#Cc1c(F)ccc2cc(O)cc(-c3nc4c5c(nc(OC[C@@]67CCCN6C[C@H](F)C7)nc5c3F)N([C@@H](C)c3cccnc3N)CCO4)c12` [Example 13b, 4-(10-((S)-1-(2-aminopyridin-3-yl)ethyl)-4-fluoro-2-(((2R,7aS)-2-fluorotetrahydro-1H-pyrrolizin-7a(5H)-yl)methoxy)-9,10-dihydro-8H-7-oxa-1,3,6,10-tetraazacyclohepta[de]naphthalen-5-yl)-5-ethynyl-6-fluoronaphthalen-2-ol], the pIC50 was under 5.00.

Same assay, conditions: Homo sapiens, ASPC1, 72 h, AsPC-1 pancreatic cancer (KRAS G12D mutation)

Compared with `C#Cc1c(F)ccc2cc(O)cc(-c3nc4c5c(nc(OC[C@@]67CCCN6C[C@H](F)C7)nc5c3F)N(C(C)c3cccnc3N)C[C@H](C)O4)c12` (mixture of isomers) [Example 6, 4-((8S)-10-(1-(2-aminopyridin-3-yl)ethyl)-4-fluoro-2-(((2R,7aS)-2-fluorotetrahydro-1H-pyrrolizin-7a(5H)-yl)methoxy)-8-methyl-9,10-dihydro-8H-7-oxa-1,3,6,10-tetraazacyclohepta[de]naphthalen-5-yl)-5-ethynyl-6-fluoronaphthalen-2-ol], `C#Cc1c(F)ccc2cc(O)cc(-c3nc4c5c(nc(OC[C@@]67CCCN6C[C@H](F)C7)nc5c3F)N([C@@H](C)c3cccnc3N)C[C@H](C)O4)c12` [Example 6b, 4-((S)-10-((S)-1-(2-aminopyridin-3-yl)ethyl)-4-fluoro-2-(((2R,7aS)-2-fluorotetrahydro-1H-pyrrolizin-7a(5H)-yl)methoxy)-8-methyl-9,10-dihydro-8H-7-oxa-1,3,6,10-tetraazacyclohepta[de]naphthalen-5-yl)-5-ethynyl-6-fluoronaphthalen-2-ol] is lower in pIC50: 5.00 to 6.00 for the first, under 5.00 for the second.

First: C#Cc1c(F)ccc2cc(O)cc(-c3nc4c5c(nc(OCC67CC(=C)CN6CC(=C)C7)nc5c3F)N(C(C)c3cccnc3N)C[C@H](C)O4)c12 (stereo partly drawn) [Example 4, 4-((8S)-10-(1-(2-aminopyridin-3-yl)ethyl)-2-((2,6-dimethylenetetrahydro-1H-pyrrolizin-7a(5H)-yl)methoxy)-4-fluoro-8-methyl-9,10-dihydro-8H-7-oxa-1,3,6,10-tetraazacyclohepta[de]naphthalen-5-yl)-5-ethynyl-6-fluoronaphthalen-2-ol]
Second: C=C1CN2CC(=C)CC2(COc2nc3c4c(nc(-c5cc(O)cc6ccc(F)c(CC)c56)c(F)c4n2)OCCN3C(C)c2cccnc2N)C1 (centres unmarked) [Example 19, 4-(10-(1-(2-aminopyridin-3-yl)ethyl)-2-((2,6-dimethylenetetrahydro-1H-pyrrolizin-7a(5H)-yl)methoxy)-4-fluoro-9,10-dihydro-8H-7-oxa-1,3,6,10-tetraazacyclohepta[de]naphthalen-5-yl)-5-ethyl-6-fluoronaphthalen-2-ol]
The pIC50 of the first is lower: under 5.00 for the first, 5.00 to 6.00 for the second.

Compared with `C#Cc1c(F)ccc2cc(O)cc(-c3nc4c5c(nc(OCC6(CN7CCOCC7)CC6)nc5c3F)N(C(C)c3cccnc3N)C[C@H](C)O4)c12` (stereo partly drawn) [Example 5, 4-((8S)-10-(1-(2-aminopyridin-3-yl)ethyl)-4-fluoro-8-methyl-2-((1-(morpholinomethyl)cyclopropyl)methoxy)-9,10-dihydro-8H-7-oxa-1,3,6,10-tetraazacyclohepta[de]naphthalen-5-yl)-5-ethynyl-6-fluoronaphthalen-2-ol], `C#Cc1c(F)ccc2cc(O)cc(-c3nc4c5c(nc(OCC67COC(C6)C7)nc5c3F)N(C(C)c3cccnc3N)C[C@H](C)O4)c12` (stereo partly drawn) [Example 9, 4-((8S)-2-((2-oxabicyclo[2.1.1]hexan-4-yl)methoxy)-10-(1-(2-aminopyridin-3-yl)ethyl)-4-fluoro-8-methyl-9,10-dihydro-8H-7-oxa-1,3,6,10-tetraazacyclohepta[de]naphthalen-5-yl)-5-ethynyl-6-fluoronaphthalen-2-ol] is higher in pIC50: under 5.00 for the first, 5.00 to 6.00 for the second.

First: C#Cc1c(F)ccc2cc(O)cc(-c3nc4c5c(nc(OCC6CC(F)(F)CN6C)nc5c3F)N(C(C)c3cccnc3N)C[C@H](C)O4)c12 (stereo partly drawn) [Example 7, 4-((8S)-10-(1-(2-aminopyridin-3-yl)ethyl)-2-((4,4-difluoro-1-methylpyrrolidin-2-yl)methoxy)-4-fluoro-8-methyl-9,10-dihydro-8H-7-oxa-1,3,6,10-tetraazacyclohepta[de]naphthalen-5-yl)-5-ethynyl-6-fluoronaphthalen-2-ol]
Second: C#Cc1c(F)ccc2cc(O)cc(-c3nc4c5c(nc(OC[C@@H]6CC(F)(F)CN6C)nc5c3F)N(C(C)c3cccnc3N)CCO4)c12 (stereo partly drawn) [Example 15, 4-(10-(1-(2-aminopyridin-3-yl)ethyl)-2-(((S)-4,4-difluoro-1-methylpyrrolidin-2-yl)methoxy)-4-fluoro-9,10-dihydro-8H-7-oxa-1,3,6,10-tetraazacyclohepta[de]naphthalen-5-yl)-5-ethynyl-6-fluoronaphthalen-2-ol]
The pIC50 of the first is lower: under 5.00 for the first, 5.00 to 6.00 for the second. The second is the more potent here.

`C#Cc1c(F)ccc2cc(O)cc(-c3nc4c5c(nc(OC[C@@H]6CCN6CC(F)F)nc5c3F)N(C(C)c3cccnc3N)C[C@H](C)O4)c12` (stereo partly drawn) [Example 8, 4-((8S)-10-(1-(2-aminopyridin-3-yl)ethyl)-2-(((S)-1-(2,2-difluoroethyl)azetidin-2-yl)methoxy)-4-fluoro-8-methyl-9,10-dihydro-8H-7-oxa-1,3,6,10-tetraazacyclohepta[de]naphthalen-5-yl)-5-ethynyl-6-fluoronaphthalen-2-ol] and `C[C@H]1CN([C@@H](C)c2cccnc2N)c2nc(OC[C@@]34CCCN3C[C@H](F)C4)nc3c(F)c(-c4cc(O)cc5ccc(F)c(F)c45)nc(c23)O1` [Example 10b, 4-((S)-10-((S)-1-(2-aminopyridin-3-yl)ethyl)-4-fluoro-2-(((2R,7aS)-2-fluorotetrahydro-1H-pyrrolizin-7a(5H)-yl)methoxy)-8-methyl-9,10-dihydro-8H-7-oxa-1,3,6,10-tetraazacyclohepta[de]naphthalen-5-yl)-5,6-difluoronaphthalen-2-ol] cannot be ordered by pIC50: under 5.00 for the first, under 5.00 for the second.

First: CC(c1cccnc1N)N1C[C@H](C)Oc2nc(-c3cc(O)cc(Cl)c3C3CC3)c(F)c3nc(OC[C@@]45CCCN4C[C@H](F)C5)nc1c23 (stereo partly drawn) [Example 11, 3-((8S)-10-(1-(2-aminopyridin-3-yl)ethyl)-4-fluoro-2-(((2R,7aS)-2-fluorotetrahydro-1H-pyrrolizin-7a(5H)-yl)methoxy)-8-methyl-9,10-dihydro-8H-7-oxa-1,3,6,10-tetraazacyclohepta[de]naphthalen-5-yl)-5-chloro-4-cyclopropylphenol]
Second: CCc1c(F)ccc2cc(O)cc(-c3nc4c5c(nc(OC[C@@]67CCCN6C[C@H](F)C7)nc5c3F)N([C@@H](C)c3cccnc3N)CCO4)c12 [Example 14b, 4-(10-((S)-1-(2-aminopyridin-3-yl)ethyl)-4-fluoro-2-(((2R,7aS)-2-fluorotetrahydro-1H-pyrrolizin-7a(5H)-yl)methoxy)-9,10-dihydro-8H-7-oxa-1,3,6,10-tetraazacyclohepta[de]naphthalen-5-yl)-5-ethyl-6-fluoronaphthalen-2-ol]
The pIC50 of the first is lower: under 5.00 for the first, 5.00 to 6.00 for the second.

In the case of `CCc1c(F)ccc2cc(O)cc(-c3nc4c5c(nc(OC[C@@]67CCCN6C[C@H](F)C7)nc5c3F)N(C(C)c3ccccc3N)CCO4)c12` (stereo partly drawn) [Example 21, 4-(10-(1-(2-aminophenyl)ethyl)-4-fluoro-2-(((2R,7aS)-2-fluorotetrahydro-1H-pyrrolizin-7a(5H)-yl)methoxy)-9,10-dihydro-8H-7-oxa-1,3,6,10-tetraazacyclohepta[de]naphthalen-5-yl)-5-ethyl-6-fluoronaphthalen-2-ol], the pIC50 was under 5.00.
